Results from patent publication US20110070232A1, “Combination Therapy with an Antitumor Alkaloid” (Pharma Mar, S.A., priority 2008, published 2011).
Where two headings read alike, the source gives them in different places.

Experiments:
Type in all cases: in vivo, mice
SK-OV-3 tumors = details: for % Inhibition: PM00104 0.9 mg/kg/day, single agents and combination, r5-r14 = day 14,17,21,24,29,32,36,43,50,57
Text: (§1) Female athymic nude mice (Harlan Sprague Dawley, Madison, Wis.) were utilized for all experiments. Animals were housed in ventilated rack caging with food and water ad libitum. The mice were acclimated for at least 5 days prior to tumor implantation with tumor fragments.
The tumor model used in these studies was SK-OV-3 cell line, which was obtained from the ATCC (Manassas, Va.).
SK-OV-3 fragments were removed from donor animals and tissue was debrided of membrane and any hemorrhagic and necrotic areas and 3-4 mm^3 fragments, from in vivo passage 2, were implanted SC on the right flank of each animal, using a 13G trochar. Bacterial culture was taken on cells used to implant the study.
Treatments were initiated on DPI 14.
(§2) Tumor size measurements were recorded twice weekly from the treatment initiation until the termination of the study.
(§3) Mean, standard deviation and standard error of the mean were determined for tumor volume for all animal groups at all assessments. Student's t test was performed on tumor volumes at each measurement day, including at the end of the study, to determine whether there were any statistically significant differences between combination treatment groups and single monotherapy treatment groups.

MRI-H-254 tumors = test system: MRI-H-254 tumors
Procedure: as §1
Treatments were initiated on DPI 20.
as §2, §3

CaLu-6 tumors = details: G2 PM00104 0.9 mg/kg/day IV
Text: (§4) Female athymic nude mice (Harlan Sprague Dawley, Madison, Wis.) were utilized for all experiments. Animals were housed in ventilated rack caging with food and water ad libitum. The mice were acclimated for at least 5 days prior to tumor implantation.
The tumor model used in this study was CaLu-6 cell line which is a human lung cell line obtained from the ATCC (Manassas, Va.). […] Cells from in vitro passage 10 were those implanted SC into study mice.
Treatments were initiated on DPI 9.
(§5) Tumor size measurements were recorded 2-3 times/week from the treatment initiation until the termination of the study.
as §3

NCI-H460 tumors = details: G2 PM00104 0.9 mg/kg/day IV
Text: as §4
The tumor model used in this study was NCI-H460 cell line which is a human lung cell line obtained from the ATCC (Manassas, Va.). […] Cells from in vitro passage 16 were those implanted SC into study mice.
Treatments were initiated on DPI 8.
as §5, §3

[1] = PM00104 0.90 mg/kg/day IV and/or Bevacizumab 5 mg/kg/day IP
[2] = PM00104 0.90 IV, docetaxel 16 IP, oxaliplatin 8 IP mg/kg/day (G2, G3, G5, G7, G9), DPI 20, 27, 34

COc1c(C)cc2c(c1O)[C@@H]1[C@@H]3Cc4c(OC(C)=O)c(C)c5c(c4[C@H](CNC(=O)/C=C/c4cccc(C(F)(F)F)c4)N3[C@@H](O)[C@H](C2)N1C)OCO5 [PM00104]
% T/C on day 14 (SK-OV-3 tumors; [1]): 100.9% | % T/C on day 17 (SK-OV-3 tumors; [1]): 87.6% | % T/C on day 21 (SK-OV-3 tumors; [1]): 79.4% | % T/C on day 24 (SK-OV-3 tumors; [1]): 78.8% | % T/C on day 29 (SK-OV-3 tumors; [1]): 73.5% | % T/C on day 32 (SK-OV-3 tumors; [1]): 73.1% | % T/C on day 36 (SK-OV-3 tumors; [1]): 72.7% | % T/C on day 43 (SK-OV-3 tumors; [1]): 81.5% | % T/C on day 50 (SK-OV-3 tumors; [1]): 93.8% | % T/C on day 57 (SK-OV-3 tumors; [1]): 100.4% | % Inhibition (SK-OV-3 tumors; bevacizumab 5 mg/kg/day): 27.3% | % Inhibition (SK-OV-3 tumors; bevacizumab […]): 27.3% | % T/C on day 20 (MRI-H-254 tumors; [2]): 100.2% | % T/C on day 23 (MRI-H-254 tumors; [2]): 109.3% | % T/C on day 27 (MRI-H-254 tumors; [2]): 71.6% | % T/C on day 30 (MRI-H-254 tumors; [2]): 65.4% | % T/C on day 33 (MRI-H-254 tumors; [2]): 54.2% | % T/C on day 36 (MRI-H-254 tumors; [2]): 50.0% | % T/C on day 40 (MRI-H-254 tumors; [2]): 36.1% | % T/C on day 48 (MRI-H-254 tumors; [2]): 26.9% | % Inhibition (MRI-H-254 tumors; day 20, PM00104 0.9 and docetaxel 8 mg/kg/day): −0.2% | % Inhibition (MRI-H-254 tumors; day 20, PM00104 0.9 and docetaxel 16 mg/kg/day): −0.2% | % Inhibition (MRI-H-254 tumors; day 20, PM00104 0.9 and oxaliplatin 4 mg/kg/day): −0.2% | % Inhibition (MRI-H-254 tumors; day 20, PM00104 0.9 and oxaliplatin 8 mg/kg/day): −0.2% | % Inhibition (MRI-H-254 tumors; day 23, PM00104 0.9 and docetaxel 8 mg/kg/day): −9.3% | % Inhibition (MRI-H-254 tumors; day 23, PM00104 0.9 and docetaxel 16 mg/kg/day): −9.3% | % Inhibition (MRI-H-254 tumors; day 23, PM00104 0.9 and oxaliplatin 4 mg/kg/day): −9.3% | % Inhibition (MRI-H-254 tumors; day 23, PM00104 0.9 and oxaliplatin 8 mg/kg/day): −9.3% | % Inhibition (MRI-H-254 tumors; day 27, PM00104 0.9 and docetaxel 8 mg/kg/day): 28.4% | % Inhibition (MRI-H-254 tumors; day 27, PM00104 0.9 and docetaxel 16 mg/kg/day): 28.4% | % Inhibition (MRI-H-254 tumors; day 27, PM00104 0.9 and oxaliplatin 4 mg/kg/day): 28.4% | % Inhibition (MRI-H-254 tumors; day 27, PM00104 0.9 and oxaliplatin 8 mg/kg/day): 28.4% | % Inhibition (MRI-H-254 tumors; day 30, PM00104 0.9 and docetaxel 8 mg/kg/day): 34.6% | % Inhibition (MRI-H-254 tumors; day 30, PM00104 0.9 and docetaxel 16 mg/kg/day): 34.6% | % Inhibition (MRI-H-254 tumors; day 30, PM00104 0.9 and oxaliplatin 4 mg/kg/day): 34.6% | % Inhibition (MRI-H-254 tumors; day 30, PM00104 0.9 and oxaliplatin 8 mg/kg/day): 34.6% | % Inhibition (MRI-H-254 tumors; day 33, PM00104 0.9 and docetaxel 8 mg/kg/day): 45.8% | % Inhibition (MRI-H-254 tumors; day 33, PM00104 0.9 and docetaxel 16 mg/kg/day): 45.8% | % Inhibition (MRI-H-254 tumors; day 33, PM00104 0.9 and oxaliplatin 4 mg/kg/day): 45.8% | % Inhibition (MRI-H-254 tumors; day 33, PM00104 0.9 and oxaliplatin 8 mg/kg/day): 45.8% | % Inhibition (MRI-H-254 tumors; day 36, PM00104 0.9 and docetaxel 8 mg/kg/day): 50.0% | % Inhibition (MRI-H-254 tumors; day 36, PM00104 0.9 and docetaxel 16 mg/kg/day): 50.0% | % Inhibition (MRI-H-254 tumors; day 36, PM00104 0.9 and oxaliplatin 4 mg/kg/day): 50.0% | % Inhibition (MRI-H-254 tumors; day 36, PM00104 0.9 and oxaliplatin 8 mg/kg/day): 50.0% | % Inhibition (MRI-H-254 tumors; day 40, PM00104 0.9 and docetaxel 8 mg/kg/day): 63.9% | % Inhibition (MRI-H-254 tumors; day 40, PM00104 0.9 and docetaxel 16 mg/kg/day): 63.9% | % Inhibition (MRI-H-254 tumors; day 40, PM00104 0.9 and oxaliplatin 4 mg/kg/day): 63.9% | % Inhibition (MRI-H-254 tumors; day 40, PM00104 0.9 and oxaliplatin 8 mg/kg/day): 63.9% | % Inhibition (MRI-H-254 tumors; day 48, PM00104 0.9 and docetaxel 8 mg/kg/day): 73.1% | % Inhibition (MRI-H-254 tumors; day 48, PM00104 0.9 and docetaxel 16 mg/kg/day): 73.1% | % Inhibition (MRI-H-254 tumors; day 48, PM00104 0.9 and oxaliplatin 4 mg/kg/day): 73.1% | % Inhibition (MRI-H-254 tumors; day 48, PM00104 0.9 and oxaliplatin 8 mg/kg/day): 73.1% | % T/C on day 9 (CaLu-6 tumors): 104.1% | % T/C on day 13 (CaLu-6 tumors): 106.0% | % T/C on day 16 (CaLu-6 tumors): 111.4% | % T/C on day 20 (CaLu-6 tumors): 115.4% | % T/C on day 27 (CaLu-6 tumors): 93.9% | % T/C on day 30 (CaLu-6 tumors): 80.3% | % T/C on day 34 (CaLu-6 tumors): 81.5% | % T/C on day 42 (CaLu-6 tumors): 77.2% | % Inhibition (CaLu-6 tumors; day 9): −4.1% | % Inhibition (CaLu-6 tumors; day 13): −6.0% | % Inhibition (CaLu-6 tumors; day 16): −11.4% | % Inhibition (CaLu-6 tumors; day 20): −15.4% | % Inhibition (CaLu-6 tumors; day 23): −16.8% | % Inhibition (CaLu-6 tumors; day 27): 6.1% | % Inhibition (CaLu-6 tumors; day 30): 19.7% | % Inhibition (CaLu-6 tumors; day 34): 18.5% | % Inhibition (CaLu-6 tumors; day 42): 22.8% | % T/C on day 8 (NCI-H460 tumors): 101.5% | % T/C on day 10 (NCI-H460 tumors): 86.5% | % T/C on day 13 (NCI-H460 tumors): 48.5% | % T/C on day 16 (NCI-H460 tumors): 49.0% | % T/C on day 20 (NCI-H460 tumors): 47.2% | % T/C on day 23 (NCI-H460 tumors): 63.0% | % T/C on day 28 (NCI-H460 tumors): 61.9% | % T/C on day 31 (NCI-H460 tumors): 81.7% | % Inhibition (NCI-H460 tumors; day 8): −1.5% | % Inhibition (NCI-H460 tumors; day 10): 13.5% | % Inhibition (NCI-H460 tumors; day 13): 51.5% | % Inhibition (NCI-H460 tumors; day 16): 51.0% | % Inhibition (NCI-H460 tumors; day 20): 52.8% | % Inhibition (NCI-H460 tumors; day 23): 37.0% | % Inhibition (NCI-H460 tumors; day 28): 38.1% | % Inhibition (NCI-H460 tumors; day 31): 18.3%
